Tests used:
[1] = tested on: Phakopsora pachyrhizi, strain with amino acid substitution F129L in the mitochondrial cytochrome b protein; experiment: Protective control of soybean rust on soybeans (PHAKPA P6); type: in vivo
[2] = tested on: Phakopsora pachyrhizi, strain with amino acid substitution F129L in the mitochondrial cytochrome b protein; experiment: Protective control of soybean rust on soybeans (PHAKPA P2); type: in vivo; details: for PHAKPA (F129L) Disease level (%), P2 at 16 ppm: Table C4, untreated >90
Pyricularia oryzae = experiment: microbe, parasite or virus in culture; type: cell-based; details: 0.016 ppm
[3] = tested on: Alternaria solani, Qo inhibitor-resistant isolate containing F129L in the mitochondrial cytochrome b protein; experiment: Micro titer plate test, activity against Alternaria solani causing early blight (ALTESO), F129L; type: cell-based; details: Table C11a; 0.016 ppm
[4] = Table C4, 16 ppm, untreated >85
[5] = protective P6, 16 ppm, soybean rust F129L strain
[6] = protective P2, 16 ppm, soybean rust F129L strain
[7] = Table 1, protective P6, 4 ppm, F129L strain
[8] = Table 1, protective P6, 16 ppm, F129L strain
[9] = Table 1, protective P2, 4 ppm, F129L strain
[10] = Table 1, protective P2, 16 ppm, F129L strain
[11] = protective P6, 4 ppm, soybean rust F129L strain
[12] = protective P2, 4 ppm, soybean rust F129L strain
[13] = Table C2, protective, inoculation six days after spraying, 4 ppm, % diseased leaf area on soybean, untreated 99

Row | SMILES | % PHAKPA (F129L) Disease level, P6 at 4 ppm [1, 7] [%] | % PHAKPA (F129L) Disease level, P6 at 16 ppm [1, 8] [%] | % PHAKPA (F129L) Disease level, P2 at 4 ppm [2, 9] [%] | % PHAKPA (F129L) Disease level, P2 at 16 ppm [2, 10] [%] | also measured
1 | CO/N=C(/C(=O)OC)c1cccc(C)c1CO/N=C(\C)c1cccc(OC(F)(F)F)c1 [Ex. 28] | – | – | – | – | PHAKPA (F129L) Disease level (%), P6 at 16 ppm [1, 4]: 18%; % PHAKPA (F129L) Disease level, P6 at 16 ppm [1, 5]: 0%; PHAKPA (F129L) Disease level (%), P2 at 16 ppm ([2]; 16 ppm): 30%; % PHAKPA (F129L) Disease level, P2 at 16 ppm [2, 6]: 0%
2 | CO/C=C(/C(=O)OC)c1cccc(C)c1CO/N=C(\C)c1ccc(Cl)c(F)c1OC(F)(F)F [compound 452] | 70 | 14 | 60 | 6 | –
3 | CO/C=C(/C(=O)OC)c1cccc(C)c1CO/N=C(\C)c1ccccc1C(F)(F)F [Ex. 244] | 15 | 2 | 14 | 0 | PHAKPA (F129L) Disease level (%), P6 at 16 ppm [1, 4]: 2%; PHAKPA (F129L) Disease level (%), P2 at 16 ppm ([2]; 16 ppm): 0%
4 | CNC(=O)/C(=N/OC)c1cccc(C)c1CO/N=C(\C)c1c(F)cc(Br)cc1OC(F)(F)F [compound 355] | 48 | 4 | 34 | 7 | –
5 | CO/N=C(/C(=O)OC)c1cccc(C)c1CO/N=C(\C)c1cccc(C(F)(F)F)c1 [Ex. 9] | – | – | – | – | Fungal growth (%) PYRIOR (Pyricularia oryzae; Table C9): 38%; PHAKPA (F129L) Disease level (%), P6 at 16 ppm ([1]; P6 at 16 ppm, untreated 75%): 1%; PHAKPA (F129L) Disease level (%), P6 at 16 ppm ([1]; Table C1, protective, inoculation six days after spraying, 16 ppm, % diseased leaf area on soybean): 4%; PHAKPA (F129L) Disease level (%) P2 at 4 ppm ([2]; Table C1, protective, inoculation 2 days after spraying, 4 ppm, % diseased leaf area on soybean): 35%; PHAKPA (F129L) Disease level (%) P2 at 4 ppm ([2]; Table C7b, 4 ppm, untreated 92): 6%
6 | CNC(=O)/C(=N/OC)c1cccc(C)c1CO/N=C(\C)c1ccc(-c2ccc(F)cc2)cc1C(F)(F)F [compound 426] | 27 | 10 | 7 | 1 | –
7 | COC=C(C(=O)OC)c1cccc(C)c1CON=C(C)c1cc(F)c(F)cc1CC(F)(F)F [compound 405] | 70 | 27 | 97 | 27 | –
8 | CO/N=C(/C(=O)OC)c1cccc(C)c1CO/N=C(\C)c1ccccc1F [Ex. 1, Methyl (2E)-2-[2-[[(E)-3-(2-fluorophenyl)ethylideneamino]oxymethyl]-3-methyl-phenyl]-2-methoxyimino-acetate] | – | – | – | – | PHAKPA (F129L) Disease level (%), P6 at 16 ppm [1, 4]: 47%; % PHAKPA (F129L) Disease level, P6 at 4 ppm [1, 11]: 90%; % PHAKPA (F129L) Disease level, P6 at 16 ppm [1, 5]: 56%; PHAKPA (F129L) Disease level (%), P2 at 16 ppm ([2]; 16 ppm): 28%; % PHAKPA (F129L) Disease level, P2 at 4 ppm [2, 12]: 80%; % PHAKPA (F129L) Disease level, P2 at 16 ppm [2, 6]: 27%
9 | CON=C(C)c1ccc(C(C)=NOCc2c(C)cccc2C(=NOC)C(=O)OC)c(OC(F)(F)F)c1 [compound 418] | 73 | 57 | 70 | 33 | –
10 | CO/N=C(/C(=O)OC)c1cccc(C)c1CO/N=C(\C)c1cccc(OC(F)(F)F)c1 [drawing 939, reference compound] | – | – | – | – | Fungal growth (%) PYRIOR (Pyricularia oryzae; Table C8a): 100%
11 | CO/N=C(/C(=O)OC)c1cccc(C)c1CO/N=C(\C)c1c(F)ccc(C(F)(F)F)c1F [compound 156] | – | – | – | – | % PHAKPA (F129L) Disease level, P6 at 4 ppm [1, 11]: 47%; % PHAKPA (F129L) Disease level, P6 at 16 ppm [1, 5]: 3%; % PHAKPA (F129L) Disease level, P2 at 4 ppm [2, 12]: 27%; % PHAKPA (F129L) Disease level, P2 at 16 ppm [2, 6]: 0%
12 | CO/C=C(/C(=O)OC)c1cccc(C)c1CO/N=C(\C)c1ccc(OC(F)(F)F)cc1Cl [compound 463] | 3 | 0 | 6 | 0 | –
13 | CNC(=O)/C(=N/OC)c1ccccc1CO/N=C(\C)c1cc(F)ccc1F [reference compound] | – | – | – | – | PHAKPA (F129L) Disease level (%), P6 at 16 ppm [1, 4]: 22%; PHAKPA (F129L) Disease level (%), P2 at 16 ppm ([2]; 16 ppm): 1%
14 | CNC(=O)/C(=N/OC)c1cccc(OC)c1CO/N=C(\C)c1cccc(C(F)(F)F)c1 [compound 461] | 52 | 6 | 26 | 2 | –
15 | CNC(=O)/C(=N/OC)c1cccc(C)c1CO/N=C(\C)c1ccc(OC)cc1OC(F)(F)F [compound 337] | 13 | 1 | 9 | 0 | –
16 | CNC(=O)/C(=N/OC)c1cccc(C)c1CO/N=C(\C)c1ccc(Cl)c(F)c1OC(F)(F)F [compound 449] | 57 | 9 | 33 | 10 | –
17 | COC=C(C(=O)OC)c1cccc(C)c1CON=C(C)c1ccc(F)c(F)c1OC(F)(F)F [compound 450] | 4 | 1 | 3 | 1 | –
18 | CO/C=C(/C(=O)OC)c1cccc(C)c1CO/N=C(\C)c1cccc(C(F)(F)F)c1 [Ex. 231] | 2 | 0 | 0 | 0 | PHAKPA (F129L) Disease level (%) P6 at 4 ppm [1, 13]: 2%; PHAKPA (F129L) Disease level (%) P2 at 4 ppm ([2]; Table C2, protective, inoculation 2 days after spraying, 4 ppm, % diseased leaf area on soybean, untreated 100): 0%
19 | CNC(=O)/C(=N/OC)c1cccc(C)c1CO/N=C(\C)c1cccc(C(F)(F)F)c1 [Ex. 8] | – | – | – | – | Fungal growth (%) ALTESO F129L [3]: 52%; Fungal growth (%) PYRIOR (Pyricularia oryzae; Table C11a): 13%; PHAKPA (F129L) Disease level (%) P6 at 4 ppm ([1]; P6 at 4 ppm, untreated 75%): 1%; PHAKPA (F129L) Disease level (%) P6 at 4 ppm [1, 13]: 13%
20 | CNC(=O)/C(=N/OC)c1cccc(C)c1CO/N=C(\C)c1ccc(-c2ccccc2)cc1C(F)(F)F [compound 413] | 33 | 15 | 40 | 15 | –
21 | CO/N=C(/C(=O)OC)c1cccc(C)c1CO/N=C(\C)c1ccc(-c2ccccc2)cc1C(F)(F)F [compound 414] | 53 | 15 | 53 | 9 | –
22 | CO/N=C(/C(=O)OC)c1cccc(C)c1CO/N=C(\C)c1ccc(-c2ccc(F)cc2)cc1C(F)(F)F [compound 425] | 53 | 40 | 27 | 28 | –
23 | CO/C=C(/C(=O)OC)c1cccc(C)c1CO/N=C(\C)c1ccc(OC)cc1C(F)(F)F [compound 464] | 8 | 0 | 1 | 0 | –
24 | CNC(=O)/C(=N/OC)c1cccc(C)c1CO/N=C(\C)c1cc(F)ccc1F [Ex. 131] | – | – | – | – | PHAKPA (F129L) Disease level (%), P6 at 16 ppm [1, 4]: 0%; % PHAKPA (F129L) Disease level, P6 at 4 ppm [1, 11]: 2%; % PHAKPA (F129L) Disease level, P6 at 16 ppm [1, 5]: 0%; PHAKPA (F129L) Disease level (%), P2 at 16 ppm ([2]; 16 ppm): 0%; % PHAKPA (F129L) Disease level, P2 at 4 ppm [2, 12]: 0%; % PHAKPA (F129L) Disease level, P2 at 16 ppm [2, 6]: 0%
25 | CO/C=C(/C(=O)OC)c1cccc(C)c1CO/N=C(\C)c1ccccc1OC(F)(F)F [compound 462] | 55 | 10 | 37 | 6 | –
26 | CO/N=C(/C(=O)OC)c1cccc(C)c1CO/N=C(\C)c1cccc(C)c1 [Ex. 76] | – | – | – | – | PHAKPA (F129L) Disease level (%), P6 at 16 ppm ([1]; P6 at 16 ppm, untreated 75%): 4%; PHAKPA (F129L) Disease level (%), P6 at 16 ppm [1, 4]: 0%
